Assay: xn = mol fraction of the nth substance listed
Settings: Liquid, Vibrating tube method

COC(=O)OC [dimethyl carbonate] + CCCO
mass density [kg/m3]
Settings	100 kPa	5000 kPa	10000 kPa	15000 kPa	20000 kPa	25000 kPa	30000 kPa	35000 kPa	40000 kPa
288.15 K, x1 = 0.0273	815.28	819.04	822.48	825.78	829.15	832.17	835.17	838.02	840.76
288.15 K, x1 = 0.0506	821.93	825.69	829.18	832.53	835.9	838.98	842.03	844.93	847.68
288.15 K, x1 = 0.0755	829.07	832.88	836.37	839.78	843.2	846.28	849.38	852.29	855.09
288.15 K, x1 = 0.1007	836.26	840.08	843.62	847.03	850.45	853.58	856.69	859.6	862.4
288.15 K, x1 = 0.1495	850.12	853.99	857.54	861.01	864.47	867.61	870.78	873.75	876.61
288.15 K, x1 = 0.2003	864.44	868.36	871.96	875.5	879	882.15	885.32	888.35	891.27
288.15 K, x1 = 0.2529	879.11	883.04	886.7	890.29	893.84	897.05	900.28	903.32	906.24
288.15 K, x1 = 0.2993	891.99	895.97	899.68	903.29	906.83	910.1	913.34	916.38	919.36
288.15 K, x1 = 0.3497	905.81	909.85	913.56	917.23	920.81	924.09	927.39	930.49	933.52
288.15 K, x1 = 0.401	919.74	923.79	927.61	931.33	934.96	938.25	941.6	944.76	947.8
288.15 K, x1 = 0.4509	933.25	937.3	941.17	944.96	948.59	951.93	955.29	958.51	961.56
288.15 K, x1 = 0.5002	946.47	950.58	954.46	958.3	961.98	965.33	968.75	971.97	975.08
288.15 K, x1 = 0.5498	959.76	963.88	967.81	971.66	975.38	978.79	982.22	985.5	988.61
288.15 K, x1 = 0.5996	973.01	977.19	981.12	984.99	988.75	992.17	995.65	998.94	1002.11
288.15 K, x1 = 0.6499	986.28	990.51	994.5	998.42	1002.18	1005.66	1009.15	1012.45	1015.62
288.15 K, x1 = 0.7006	999.56	1003.79	1007.79	1011.77	1015.53	1019.07	1022.61	1025.92	1029.15
288.15 K, x1 = 0.7471	1011.61	1015.85	1019.9	1023.94	1027.7	1031.24	1034.8	1038.16	1041.39
288.15 K, x1 = 0.7989	1025.02	1029.31	1033.41	1037.52	1041.32	1044.87	1048.43	1051.8	1055.05
288.15 K, x1 = 0.8491	1038.04	1042.34	1046.44	1050.56	1054.41	1057.97	1061.59	1065.02	1068.31
288.15 K, x1 = 0.8993	1051.07	1055.38	1059.54	1063.72	1067.56	1071.18	1074.81	1078.24	1081.55
288.15 K, x1 = 0.9249	1057.64	1061.95	1066.12	1070.3	1074.14	1077.81	1081.44	1084.88	1088.19
288.15 K, x1 = 0.9489	1063.77	1068.08	1072.25	1076.44	1080.27	1083.9	1087.54	1091.03	1094.34
288.15 K, x1 = 0.9743	1070.25	1074.61	1078.78	1082.98	1086.81	1090.45	1094.08	1097.53	1100.84
288.15 K, x1 = 1	1076.83	1081.15	1085.32	1089.52	1093.35	1096.99	1100.63	1104.08	1107.4
293.15 K, x1 = 0.0273	811.13	814.85	818.47	–	–	–	–	–	–
293.15 K, x1 = 0.0506	817.67	821.44	825.06	–	–	–	–	–	–
293.15 K, x1 = 0.0755	824.75	828.52	832.19	–	–	–	–	–	–
293.15 K, x1 = 0.1007	831.84	835.66	839.38	–	–	–	–	–	–
293.15 K, x1 = 0.1495	845.58	849.45	853.18	–	–	–	–	–	–
293.15 K, x1 = 0.2003	859.73	863.66	867.43	–	–	–	–	–	–
293.15 K, x1 = 0.2529	874.29	878.27	–	–	–	–	–	–	–
293.15 K, x1 = 0.2993	887.05	891.08	–	–	–	–	–	–	–
293.15 K, x1 = 0.3497	900.71	904.78	–	–	–	–	–	–	–
293.15 K, x1 = 0.401	914.47	918.61	–	–	–	–	–	–	–
293.15 K, x1 = 0.4509	927.86	932.05	–	–	–	–	–	–	–
293.15 K, x1 = 0.5002	940.97	945.21	–	–	–	–	–	–	–
293.15 K, x1 = 0.5498	954.1	958.38	–	–	–	–	–	–	–
293.15 K, x1 = 0.5996	967.18	971.52	–	–	–	–	–	–	–
293.15 K, x1 = 0.6499	980.33	984.67	–	–	–	–	–	–	–
293.15 K, x1 = 0.7006	993.49	997.89	–	–	–	–	–	–	–
293.15 K, x1 = 0.7471	1005.43	1009.83	–	–	–	–	–	–	–
293.15 K, x1 = 0.7989	1018.72	1023.17	–	–	–	–	–	–	–
293.15 K, x1 = 0.8491	1031.57	1036.07	–	–	–	–	–	–	–
293.15 K, x1 = 0.8993	1044.49	1049.04	–	–	–	–	–	–	–
293.15 K, x1 = 0.9249	1051	1055.55	–	–	–	–	–	–	–
293.15 K, x1 = 0.9489	1057.07	1061.62	–	–	–	–	–	–	–
293.15 K, x1 = 0.9743	1063.49	1068.04	–	–	–	–	–	–	–
293.15 K, x1 = 1	1070.06	1074.62	–	–	–	–	–	–	–
